Like-named read-outs stand apart in the source and are kept apart here.
Legend:
[1] = biological target: T1, heteromeric α7β2-nAChRs on MS/DB cholinergic neurons (Rattus norvegicus, UniProt P12390+Q05941); assay type: cell-based; settings: for form-dependent suppression of choline-induced responses: 1 nM of the peptide form
T1 construct: functional nAChRs naturally expressed on rat MS/DB cholinergic neurons; endogenous in cells; host or cells: acutely dissociated MS/DB neurons of 2-4 week-old Wistar rats
Experimental: (§1) Briefly, each postnatal 2-4 week-old Wistar rat or mouse (wild-type C57/B16 or nAChR β2 knockout mice on a C57/B16 background kindly provided by Dr. Marina Picciotto, Yale University) was anesthetized using isoflurane, and the brain was rapidly removed. Several 400-μm coronal slices, which contained the medial septum/diagonal band (MS/DB) or the ventral tegmental area (VTA), were cut using a vibratome (Vibratorne 1000 plus; Jed Pella Inc., Redding, Calif.) in cold (2-4° C.) artificial cerebrospinal fluid (ACSF) and continuously bubbled with carbogen (95% O2-5% CO2). The slices were then incubated in a pre-incubation chamber (Warner Ins., Holliston, Mass.) and allowed to recover for at least 1 h at room temperature ([…]) in oxygenated ACSF. Thereafter, the slices were treated with pronase (1 mg/6 mL) at 31° C. for 30 min and subsequently treated with the same concentration of thermolysin for another 30 min. The MS/DB or VTA region was micropunched out from the slices using a well-polished needle. […] In particular, perforated-patch recording was used to maintain the intracellular ATP concentration at a physiological level. To prepare for perforated-patch whole-cell recording, glass microelectrodes (GC-1.5; Narishige, East Meadow, N.Y.) were fashioned on a two-stage vertical pipette puller (P-830; Narishige, East Meadow, N.Y.), and the resistance of the electrode was 3 to 5 MΩ when filled with the internal solution. A tight seal (>2 GΩ) was formed between the electrode tip and the cell surface, which was followed by a transition from on-cell to whole-cell recording mode due to the partitioning of amphotericin B into the membrane underlying the patch. After whole-cell formation, an access resistance lower than 60 MΩ was acceptable during perforated-patch recordings in current-clamp mode, and an access resistance lower than 30 MΩ was acceptable during voltage-clamp recordings. The series resistance was not compensated in the experiments using dissociated neurons. Under current-clamp configuration, membrane potentials were measured using a patch-clamp amplifier (200B; Axon Instruments, Foster City, Calif.). […] All experiments were performed at room temperature (22±1° C.).

MS/DB neurons = assay: Current-clamp recording of spontaneous action potential firing in dissociated MS/DB neurons; assay type: cell-based, rat; settings: 1 μM
Experimental: (§3) Briefly, each postnatal 2-4 week-old Wistar rat or mouse (wild-type C57/B16 or nAChR β2 knockout mice on a C57/B16 background kindly provided by Dr. Marina Picciotto, Yale University) was anesthetized using isoflurane, and the brain was rapidly removed. Several 400-μm coronal slices, which contained the medial septum/diagonal band (MS/DB) or the ventral tegmental area (VTA), were cut using a vibratome (Vibratorne 1000 plus; Jed Pella Inc., Redding, Calif.) in cold (2-4° C.) artificial cerebrospinal fluid (ACSF) and continuously bubbled with carbogen (95% O2-5% CO2). The slices were then incubated in a pre-incubation chamber (Warner Ins., Holliston, Mass.) and allowed to recover for at least 1 h at room temperature (22±PC) in oxygenated ACSF. Thereafter, the slices were treated with pronase (1 mg/6 mL) at 31° C. for 30 min and subsequently treated with the same concentration of thermolysin for another 30 min. The MS/DB or VTA region was micropunched out from the slices using a well-polished needle. […] In particular, perforated-patch recording was used to maintain the intracellular ATP concentration at a physiological level. […] Under current-clamp configuration, membrane potentials were measured using a patch-clamp amplifier (200B; Axon Instruments, Foster City, Calif.). […]

[2] = biological target: T2, heterologously expressed heteromeric α7β2-nAChRs (Rattus norvegicus, UniProt P12390+Q05941); assay type: cell-based; settings: oocytes; 10 mM choline; compared with homomeric α7-nAChR
T2 construct: expressed in transfected cells; host or cells: Xenopus laevis oocytes injected with cRNA (vector pGEMHE)
Experimental: The frogs were then allowed to recover from surgery before being returned to the incubation tank. The lobes were cut into small pieces and digested with 0.08 Wunsch U/mL liberase blendzyme 3 (Roche Applied Science, Indianapolis, Ind.) with constant stirring at room temperature for 1.5-2 h. The dispersed oocytes were thoroughly rinsed with incubation solution. Stage VI oocytes were selected and incubated at 16° C. before injection. Micropipettes used for injection were pulled from borosilicate glass (Drummond Scientific, Broomall, Pa.). cRNAs encoding α7 or β2 at proper dilution were injected into oocytes separately or in different ratios using a Nanoject microinjection system (Drummond Scientific, Broomall, Pa.) at a total volume of ˜20-60 nL.
The chamber was grounded through an agarose bridge. The oocytes were voltage-clamped at −70 mV to measure ACh (or choline)-induced currents using GeneClamp 500B (Axon Instruments, Foster City, Calif.).

[3] = biological target: T3, α7-containing-nAChRs on MS/DB neurons from nAChR β2 knockout mice (Mus musculus, UniProt P49582); assay type: cell-based
T3 construct: endogenous in cells; host or cells: acutely dissociated MS/DB neurons of nAChR β2 subunit knockout mice (C57/Bl6 background)
Experimental: as §3

[4] = biological target: T4, homomeric α7-nAChRs on VTA DAergic neurons (Rattus norvegicus, UniProt Q05941); assay type: cell-based
T4 construct: native nAChR responses in rat MS/DB or VTA neurons; endogenous in cells; host or cells: acutely dissociated VTA dopaminergic neurons of Wistar rats
Experimental: as §1

[5] = test system: ionotropic glutamate receptors; assay: Glutamate-induced whole-cell currents in rat MS/DB cholinergic neurons; assay type: cell-based; settings: 1 nM peptide; 1 mM glutamate
Experimental: (§2) Briefly, each postnatal 2-4 week-old Wistar rat or mouse (wild-type C57/B16 or nAChR β2 knockout mice on a C57/B16 background kindly provided by Dr. Marina Picciotto, Yale University) was anesthetized using isoflurane, and the brain was rapidly removed. Several 400-μm coronal slices, which contained the medial septum/diagonal band (MS/DB) or the ventral tegmental area (VTA), were cut using a vibratome (Vibratorne 1000 plus; Jed Pella Inc., Redding, Calif.) in cold (2-4° C.) artificial cerebrospinal fluid (ACSF) and continuously bubbled with carbogen (95% O2-5% CO2). The slices were then incubated in a pre-incubation chamber (Warner Ins., Holliston, Mass.) and allowed to recover for at least 1 h at room temperature ([…]) in oxygenated ACSF. Thereafter, the slices were treated with pronase (1 mg/6 mL) at 31° C. for 30 min and subsequently treated with the same concentration of thermolysin for another 30 min. The MS/DB or VTA region was micropunched out from the slices using a well-polished needle. […] In particular, perforated-patch recording was used to maintain the intracellular ATP concentration at a physiological level. […] Under current-clamp configuration, membrane potentials were measured using a patch-clamp amplifier (200B; Axon Instruments, Foster City, Calif.). […]

[6] = biological target: T5, α7β2-nAChRs on MS/DB neurons from wild-type mice (Mus musculus, UniProt P49582+Q9ERK7); assay: Whole-cell current recordings, MS/DB neurons from wild-type mice; assay type: cell-based; settings: 1 nM peptide
T5 construct: heteromeric α7β2-nAChRs exist in rodent basal forebrain cholinergic neurons; endogenous in cells; host or cells: acutely dissociated MS/DB neurons of wild-type C57/Bl6 mice
Experimental: as §3

GABAA receptors = assay: GABA-induced whole-cell currents in rat MS/DB cholinergic neurons; assay type: cell-based; settings: 1 nM peptide; 0.1 mM GABA
Experimental: as §2

T1 sequence (Q05941 23-502): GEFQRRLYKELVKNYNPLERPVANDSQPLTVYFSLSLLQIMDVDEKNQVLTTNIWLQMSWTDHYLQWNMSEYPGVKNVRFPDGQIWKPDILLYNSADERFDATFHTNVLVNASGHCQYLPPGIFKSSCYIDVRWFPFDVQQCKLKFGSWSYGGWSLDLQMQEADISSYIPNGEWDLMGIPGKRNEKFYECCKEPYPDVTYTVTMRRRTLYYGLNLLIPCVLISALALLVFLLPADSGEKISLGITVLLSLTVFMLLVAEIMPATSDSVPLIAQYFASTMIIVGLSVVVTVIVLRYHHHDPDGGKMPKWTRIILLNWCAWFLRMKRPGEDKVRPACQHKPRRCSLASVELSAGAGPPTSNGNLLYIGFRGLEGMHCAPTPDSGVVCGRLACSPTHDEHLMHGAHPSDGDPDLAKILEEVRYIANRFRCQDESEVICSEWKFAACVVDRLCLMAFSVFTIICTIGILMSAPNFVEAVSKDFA
T1 sequence (P12390 25-500): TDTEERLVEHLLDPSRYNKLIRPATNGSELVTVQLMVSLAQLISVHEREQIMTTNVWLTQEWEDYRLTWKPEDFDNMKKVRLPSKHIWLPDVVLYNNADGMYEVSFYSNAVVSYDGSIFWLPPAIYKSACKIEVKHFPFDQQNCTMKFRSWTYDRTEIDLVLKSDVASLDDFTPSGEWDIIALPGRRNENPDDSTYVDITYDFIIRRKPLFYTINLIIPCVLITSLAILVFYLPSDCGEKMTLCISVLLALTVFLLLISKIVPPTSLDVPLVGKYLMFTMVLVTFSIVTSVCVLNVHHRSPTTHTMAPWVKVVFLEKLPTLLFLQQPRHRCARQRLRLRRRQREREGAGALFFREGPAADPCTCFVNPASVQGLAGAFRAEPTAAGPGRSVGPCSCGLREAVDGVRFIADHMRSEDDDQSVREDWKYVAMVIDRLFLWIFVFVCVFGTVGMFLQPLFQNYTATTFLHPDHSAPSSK
T4 sequence (Q05941 23-502): as the sequence (Q05941 23-502) above
T3 sequence (P49582 23-502): as the sequence (Q05941 23-502) above, with A402T counted along it
T2 sequence (Q05941 23-502): as the sequence (Q05941 23-502) above
T2 sequence (P12390 25-500): as the sequence (P12390 25-500) above
T5 sequence (P49582 23-502): as the sequence (Q05941 23-502) above, with A402T counted along it
T5 sequence (Q9ERK7 26-501): as the sequence (P12390 25-500) above, with A350T, V371M, R379Q, T383A, P387L, V391M, V449I, P468S counted along it

oligomeric Aβ1-42: Aβ1-42 reconstituted in distilled water, predominantly oligomeric form
form-dependent suppression of choline-induced responses ([1]; MS/DB neurons): greatest suppression

C[C@@H]1O[C@H](C[N+](C)(C)C)C[C@H]1O [muscarine]
effect on spontaneous action potential firing (MS/DB neurons): insensitive

CO[C@H]1CC=C2CCN3CCC4=C(CC(=O)OC4)[C@]23C1 [DHβE, dihydro-β-erythroidine]
sensitivity to functional blockade, α7β2- vs α7-nAChR [2]: more sensitive
sensitivity of choline-induced currents to antagonist ([3]; MS/DB neurons from β2 knockouts compared with wild-type): lower sensitivity
Hill coefficient, inhibition of choline-induced currents ([4]; 10 mM choline, VTA neurons): 0.3
IC50 ([4]; 10 mM choline, VTA neurons, n=7, read-out: IC50, inhibition of choline-induced currents): > 100 µM
Hill coefficient, inhibition of choline-induced currents ([1]; 10 mM choline, MS/DB neurons, n=8): 0.9
IC50 ([1]; 10 mM choline, MS/DB neurons, n=8, read-out: IC50, inhibition of choline-induced currents): 0.17 µM
potency difference as inhibitor of choline-induced current, MS/DB vs VTA neurons ([1]; MS/DB neurons compared with VTA neurons): ~500 fold

monomeric Aβ1-42: Aβ1-42 reconstituted in DMSO, predominant monomeric form
form-dependent suppression of choline-induced responses ([1]; MS/DB neurons): failed to suppress

Aβ1-42: amyloid beta peptides at positions 1-42 of the amyloid precursor protein, purchased from rPeptide
inhibition of glutamate-induced currents [5]: insensitive
effect on choline-induced currents [6]: did suppress
inhibition of GABA-induced currents (GABAA receptors): insensitive
effect on choline-induced currents ([3]; 1 nM peptide, MS/DB neurons from β2−/− mice): failed to suppress
effect on choline-induced currents ([4]; 1 nM peptide, VTA DAergic neurons): not sensitive
effect on choline-induced currents [1]: progressively inhibited with time
effect on choline-induced currents ([1]; 0.1 nM peptide, MS/DB neurons): negligible
effect on ACh-induced current ([1]; 1 nM peptide, 1 mM ACh, MS/DB neurons): evident
reversibility of inhibition of choline responses ([1]; 1 nM, recovery after 6 min of peptide washout): reversibly

fibrillar Aβ: Aβ1-42 stock incubated at 37° C. for 48 h at pH 6.0, predominantly fibrillar form
form-dependent suppression of choline-induced responses ([1]; MS/DB neurons): weaker inhibitory effect

CNCC/C=C/c1cccnc1 [RJR-2403]
agonist-evoked current compared with ACh-induced response [4]: mimicked
agonist-evoked inward current compared with ACh-induced response [1]: insensitive

Reference: patent publication US20110312894A1 (priority 2009, published 2011)
